# Results from US5668134A, “Method for preventing or reducing photosensitivity and/or phototoxicity reactions to medications” (priority 1994, dated 1997).
# Several values for one entry are separate records, joined by “and”; a condition that tells them apart may be missing. Equal entries are not always repeated. Structures can show the parent of a compound that is named as a salt.
# Legend:
# [1] = Pharmacokinetics in patients with cirrhosis; assay type: in vivo, human; settings: 12 patients with cirrhosis, 400 mg single dose
# [2] = Solubility of lomefloxacin HCl in urine; assay type: physicochemical; settings: human
# Experimental: Following a single 400 mg dose of lomefloxacin HCl, the solubility of lomefloxacin HCl in urine usually exceeded its peak urinary concentration 2 to 6 fold.
# Klebsiella pneumoniae = experiment: Activity in vitro and in clinical infections; assay type: cell-based
# Enterobacter cloacae = experiment: Activity in vitro and in clinical infections; assay type: cell-based
# [3] = system: skin of healthy volunteers; experiment: Example 5: severity of radiation-induced photoreactions (edema or blisters)
# Experimental: The number of skin patches with edema, or local swelling of the skin surface, were also counted. MEDs were measured separately for UVA and UVB radiation, and for UVA radiation alone. The baseline MED was defined in the manner described hereinabove. The 24 hour evaluation was allowed to be performed in the morning of Study Day 1. Severity of reactions causing edema and/or blisters were graded under the following grading system:
# Severity was assessed by comparing the numbers of subjects with responses graded as 2 (edema) or 3 (blisters).
# [4] = system: skin of healthy volunteers; experiment: Example 5: regression of delayed MEDUVA on plasma concentration
# Description: The relationship between plasma concentration at time of irradiation and delayed MEDUVA was explored using regression analysis by testing the equality of the slopes of the regression of delayed MEDUVA on plasma concentration, obtaining estimates of the parameters of the regression line, and determining the correlation coefficient.
# [5] = system: skin of healthy volunteers; parameters: species or system human; settings: in vivo
# Experimental: This study describes a randomized, single site, double-blind, two treatment, two period, two sequence, cross-over clinical pharmacology study which was performed according to FDA regulations in 27 healthy normal volunteers with fair skin that could easily burn when exposed to sunlight, to assess the photosensitivity and/or phototoxicity potential of oral 400 mg lomefloxacin hydrochloride (MAXAQUIN®) administered once daily for 4 consecutive days either in the morning (morning dose group), as described hereinbelow, or in the early evening (evening dose group), as described hereinbelow. Irradiation and evaluation of irradiated sites began at 2 hours after the final morning dose of lomefloxacin HCl for the morning dosing group, and began 16 hours after the final evening dose of lomefloxacin HCl for the evening dosing group.
# "Baseline MED" was defined as the lowest dose of UVA radiation alone, or UVA and UVB radiation, that produced a minimal perceptible erythema filling a 1 cm^2 patch of skin 24 hours post radiation.
# "Delayed MED" was defined as the lowest dose of UVA radiation alone, or UVA and UVB radiation, that produced a minimal perceptible erythema filling a 1 cm^2 patch of skin, when testing the area 24, 48 and 72 hours post radiation.
# "Immediate MED" was defined as the lowest dose producing minimal perceptible erythema filling a 1 cm^2 patch of skin when testing the area 0, 3, and 6 hours post radiation.
# After all baseline procedures, including determination of baseline MEDUVA and MEDUVA+UVB values 24 hours post-radiation, were completed, all subjects started Study Day 1 of Treatment Period 1 with an evening dose of study medication, and completed this phase of the treatment regime with a morning dose of study medication on Study Day 5. Two hours after the final morning dose, and 16 hours after the last evening dose, a randomly selected site composed of six patches of skin, each with an area of one square centimeter, on the back or buttock of the subject was irradiated with incremental amounts of energy. Immediately following irradiation (0 hour), and at 3, 6, 24, 48 and 72 hours following irradiation, each skin patch area was evaluated to determine the MEDs, and assess the severity of skin reaction using a five-grade system, as described hereinbelow. The lowest of the MEDs determined at 0, 3 and 6 hours post-radiation were referred to as immediate MEDs, and the lowest of the MEDs determined at 24, 48 and 72 hours post-radiation were referred to as delayed MEDs.
# The source of radiation employed was an Oriel (Santa Monica, Calif.) Xenon Arc 1000 watt solar simulator, with the following filters: WG320 filter (1 mm thick, emitting full spectrum UVA and UVB radiation), WG335 filter (3 mm thick, emitting almost exclusively UVA radiation) or UG11 filter (to filter infrared radiation).
# For predrug exposure MED determination, 2 sets each with six 1 cm^2 patches on the back or buttocks were irradiated with increasing doses of UVA and UVB radiation, and UVA radiation alone, up to 7 days prior to beginning of drug treatment. With respect to UVA light source, irradiation began at 5 J/cm^2, and was increased by increments of 5 J/cm^2 using a different skin patch for each exposure. The maximum radiation dose was 30 J/cm^2. Subjects with MED greater than 30 J/cm^2 were excluded from the study. […] A different skin patch was used for each exposure.
# Two hours after the administration of the last dose of Treatment Period 1 (a.m. dose), the two randomly selected sites on each subject's back or buttocks were exposed one to UVA and UVB radiation, and one to UVA radiation alone. In order to protect the subjects from excessive radiation, as well as assess the true Minimum Erythema Dose (MED), the posttreatment irradiation doses for each subject was adjusted in accordance with their pretreatment MEDs. The following table was used to determine each subject's minimum and maximum posttreatment radiation dose: […]
# [6] = Food effect on pharmacokinetics; assay type: in vivo, human
# [7] = UVA & UVB, a.m., 0 h post-radiation
# [8] = UVA & UVB, a.m., 3 h post-radiation
# [9] = UVA & UVB, a.m., 6 h post-radiation
# [10] = UVA & UVB, a.m., 24 h post-radiation
# [11] = UVA & UVB, a.m., 48 h post-radiation
# [12] = UVA & UVB, a.m., 72 h post-radiation
# [13] = UVA & UVB, p.m., 0 h post-radiation
# [14] = UVA & UVB, p.m., 3 h post-radiation
# [15] = UVA & UVB, p.m., 6 h post-radiation
# [16] = UVA & UVB, p.m., 24 h post-radiation
# [17] = UVA & UVB, p.m., 48 h post-radiation
# [18] = UVA & UVB, p.m., 72 h post-radiation
smiles,measurement,setting,value
"CCn1cc(C(=O)O)c(=O)c2cc(F)c(N3CCNC(C)C3)c(F)c21 (racemic) [lomefloxacin HCl, monohydrochloride salt of (±)-1-ethyl-6,8-difluoro-1,4-dihydro-7-(3-methyl-1-piperazinyl)-4-oxo-3-quinolinecarboxylic acid]","changes in rate or extent of exposure (Cmax, Tmax, t1/2 or AUC)",[1],no significant changes
same,solubility,[2]; pH 5.2,7800 µg/mL
same,solubility,[2]; pH 6.5,2400 µg/mL
same,solubility,[2]; pH 8.12,3030 µg/mL
same,activity against most strains,Klebsiella pneumoniae,active against most strains
same,activity against most strains,Enterobacter cloacae,active against most strains
same,"NUMBER OF SUBJECTS WITH SCORE >= 2, COUNT",[3]; [7],0 subjects
same,"SUBJECTS WITH SCORE >= 2, PERCENT",[3]; [7],0.00%
same,"NUMBER OF SUBJECTS WITH SCORE >= 2, COUNT",[3]; [8],0 subjects
same,"SUBJECTS WITH SCORE >= 2, PERCENT",[3]; [8],0.00%
same,"NUMBER OF SUBJECTS WITH SCORE >= 2, COUNT",[3]; [9],2 subjects
same,"SUBJECTS WITH SCORE >= 2, PERCENT",[3]; [9],15.38%
same,"NUMBER OF SUBJECTS WITH SCORE >= 2, COUNT",[3]; [10],0 subjects
same,"SUBJECTS WITH SCORE >= 2, PERCENT",[3]; [10],0.00%
same,"NUMBER OF SUBJECTS WITH SCORE >= 2, COUNT",[3]; [11],0 subjects
same,"SUBJECTS WITH SCORE >= 2, PERCENT",[3]; [11],0.00%
same,"NUMBER OF SUBJECTS WITH SCORE >= 2, COUNT",[3]; [12],0 subjects
same,"SUBJECTS WITH SCORE >= 2, PERCENT",[3]; [12],0.00%
same,"NUMBER OF SUBJECTS WITH SCORE >= 2, COUNT",[3]; [13],0 subjects
same,"SUBJECTS WITH SCORE >= 2, PERCENT",[3]; [13],0.00%
same,"NUMBER OF SUBJECTS WITH SCORE >= 2, COUNT",[3]; [14],0 subjects
same,"SUBJECTS WITH SCORE >= 2, PERCENT",[3]; [14],0.00%
same,"NUMBER OF SUBJECTS WITH SCORE >= 2, COUNT",[3]; [15],0 subjects
same,"SUBJECTS WITH SCORE >= 2, PERCENT",[3]; [15],0.00%
same,"NUMBER OF SUBJECTS WITH SCORE >= 2, COUNT",[3]; [16],1 subjects
same,"SUBJECTS WITH SCORE >= 2, PERCENT",[3]; [16],7.69%
same,"NUMBER OF SUBJECTS WITH SCORE >= 2, COUNT",[3]; [17],0 subjects
same,"SUBJECTS WITH SCORE >= 2, PERCENT",[3]; [17],0.00%
same,"NUMBER OF SUBJECTS WITH SCORE >= 2, COUNT",[3]; [18],0 subjects
same,"SUBJECTS WITH SCORE >= 2, PERCENT",[3]; [18],0.00%
same,"NUMBER OF SUBJECTS WITH SCORE >= 2, COUNT","[3]; UVA, a.m., 0 h post-radiation",1 subjects
same,"SUBJECTS WITH SCORE >= 2, PERCENT","[3]; UVA, a.m., 0 h post-radiation",7.69%
same,"NUMBER OF SUBJECTS WITH SCORE >= 2, COUNT","[3]; UVA, a.m., 3 h post-radiation",6 subjects
same,"SUBJECTS WITH SCORE >= 2, PERCENT","[3]; UVA, a.m., 3 h post-radiation",46.15%
same,"NUMBER OF SUBJECTS WITH SCORE >= 2, COUNT","[3]; UVA, a.m., 6 h post-radiation",9 subjects
same,"SUBJECTS WITH SCORE >= 2, PERCENT","[3]; UVA, a.m., 6 h post-radiation",69.23% and 69%
same,"NUMBER OF SUBJECTS WITH SCORE >= 2, COUNT","[3]; UVA, a.m., 24 h post-radiation",5 subjects
same,"SUBJECTS WITH SCORE >= 2, PERCENT","[3]; UVA, a.m., 24 h post-radiation",38.46%
same,"NUMBER OF SUBJECTS WITH SCORE >= 2, COUNT","[3]; UVA, a.m., 48 h post-radiation",2 subjects
same,"SUBJECTS WITH SCORE >= 2, PERCENT","[3]; UVA, a.m., 48 h post-radiation",15.38%
same,"NUMBER OF SUBJECTS WITH SCORE >= 2, COUNT","[3]; UVA, a.m., 72 h post-radiation",0 subjects
same,"SUBJECTS WITH SCORE >= 2, PERCENT","[3]; UVA, a.m., 72 h post-radiation",0.00%
same,"NUMBER OF SUBJECTS WITH SCORE >= 2, COUNT","[3]; UVA, p.m., 0 h post-radiation",0 subjects
same,"SUBJECTS WITH SCORE >= 2, PERCENT","[3]; UVA, p.m., 0 h post-radiation",0.00%
same,"NUMBER OF SUBJECTS WITH SCORE >= 2, COUNT","[3]; UVA, p.m., 3 h post-radiation",0 subjects
same,"SUBJECTS WITH SCORE >= 2, PERCENT","[3]; UVA, p.m., 3 h post-radiation",0.00%
same,"NUMBER OF SUBJECTS WITH SCORE >= 2, COUNT","[3]; UVA, p.m., 6 h post-radiation",0 subjects
same,"SUBJECTS WITH SCORE >= 2, PERCENT","[3]; UVA, p.m., 6 h post-radiation",0.00%
same,"NUMBER OF SUBJECTS WITH SCORE >= 2, COUNT","[3]; UVA, p.m., 24 h post-radiation",0 subjects
same,"SUBJECTS WITH SCORE >= 2, PERCENT","[3]; UVA, p.m., 24 h post-radiation",0.00%
same,"NUMBER OF SUBJECTS WITH SCORE >= 2, COUNT","[3]; UVA, p.m., 48 h post-radiation",0 subjects
same,"SUBJECTS WITH SCORE >= 2, PERCENT","[3]; UVA, p.m., 48 h post-radiation",0.00%
same,"NUMBER OF SUBJECTS WITH SCORE >= 2, COUNT","[3]; UVA, p.m., 72 h post-radiation",0 subjects
same,"SUBJECTS WITH SCORE >= 2, PERCENT","[3]; UVA, p.m., 72 h post-radiation",0.00%
same,"correlation coefficient, plasma concentration vs delayed MEDUVA",[4]; in vivo,-0.72
same,slope of regression of delayed MEDUVA on plasma concentration,[4]; p<0.001,-4.99
same,"MED, 0 H, mean",[5],0.094 J/cm^2
same,amount of UVA+UVB radiation to give MED versus UVA alone,[5],over 100 times less
same,change of immediate MEDUVA+UVB from baseline,[5],not statistically significant
same,change of immediate and delayed MEDUVA+UVB from baseline,[5],"neither the changes between baseline and posttreatment immediate MEDUVA+UVB, nor between baseline and posttreatment delayed MEDUVA+UVB, were statistically significant"
same,"change of immediate and delayed MEDUVA+UVB, a.m. versus p.m.",[5],statistically significant difference
same,photosensitivity with UVA plus UVB radiation,[5],no increase in photosensitivity
same,decrease of Cmax with food,[6],18%
same,decrease of extent of absorption (AUC) with food,[6],12%
same,delay of Tmax with food,[6],41%
same,Tmax,"[6]; human, in vivo, with food",2 h
